Experimental data reported in patent publication US9783573B2, “IAP antagonists” (BRISTOL-MYERS SQUIBB COMPANY, priority 2012, dated 2017).

How the values were obtained:
[1] = target: His-BIR2-3 (125-356, C202A/C213G, XIAP) (Homo sapiens (Human), UniProt P98170, C202A/C213G); test: XIAP-BIR2-3 Dimeric SMAC Peptide Homogeneous Time Resolved Fluorescence (HTRF) Assay; assay type: binding; details: fluorescein labeled dimeric SMAC peptide
Description: D. XIAP-BIR2-3 Dimeric SMAC Peptide Homogeneous Time Resolved Fluorescence (HTRF) Assay
(§1) Assays were performed in black, flat-bottom, 384-well plates.

His-BIR3 (241-356, XIAP) = His-BIR3 (241-356, XIAP) (Homo sapiens (Human), UniProt P98170); test: XIAP-BIR3/SMAC Homogeneous Time Resolved Fluorescence (HTRF) Assay; assay type: binding; details: fluorescein labeled SMAC peptide
Description: B. XIAP-BIR3/SMAC Homogeneous Time Resolved Fluorescence (HTRF) Assay
as §1

| Structure (SMILES) | IC50 [1] [nM] | IC50 (His-BIR3 (241-356, XIAP)) [nM] |
| --- | --- | --- |
| CN[C@@H](C)C(=O)N[C@H](C(=O)N1C[C@@H](NC(=O)c2ccc(C(=O)Nc3ccc4c(c3)CN(C(=O)[C@@H](NC(=O)[C@H](C)NC)C(C)(C)SCC(=O)Nc3nccs3)[C@H](C(=O)N[C@@H]3CCCc5ccccc53)C4)cc2)C[C@H]1C(=O)N[C@@H]1CCCc2ccccc21)C(C)(C)C [Example 60, N^1-((3S,5S)-1-((S)-3,3-Dimethyl-2-((S)-2-(methylamino)propanamido)butanoyl)-5-(((R)-1,2,3,4-tetrahydronaphthalen-1-yl)carbamoyl)pyrrolidin-3-yl)-N^4-((S)-2-((R)-3-methyl-2-((S)-2-(methylamino)propanamido)-3-((2-oxo-2-(thiazol-2-ylamino)ethyl)thio)butanoyl)-3-(((R)-1,2,3,4-tetrahydronaphthalen-1-yl)carbamoyl)-1,2,3,4-tetrahydroisoquinolin-7-yl)terephthalamide] | 22 | 42 |
| CN[C@@H](C)C(=O)N[C@H](C(=O)N1C[C@@H](NC(=O)c2ccc(C(=O)Nc3ccc4c(c3)CN(C(=O)[C@@H](NC(=O)[C@H](C)NC)C(C)(C)SCC(=O)N3CCOCC3)[C@H](C(=O)N[C@@H]3CCCc5ccccc53)C4)cc2)C[C@H]1C(=O)N[C@@H]1CCCc2ccccc21)C(C)(C)C [Example 61, N^1-((3S,5S)-1-((S)-3,3-Dimethyl-2-((S)-2-(methylamino)propanamido)butanoyl)-5-(((R)-1,2,3,4-tetrahydronaphthalen-1-yl)carbamoyl)pyrrolidin-3-yl)-N^4-((S)-2-((R)-3-methyl-2-((S)-2-(methylamino)propanamido)-3-((2-morpholino-2-oxoethyl)thio)butanoyl)-3-(((R)-1,2,3,4-tetrahydronaphthalen-1-yl)carbamoyl)-1,2,3,4-tetrahydroisoquinolin-7-yl)terephthalamide] | 16 | 31 |
| CN[C@@H](C)C(=O)N[C@H](C(=O)N1C[C@@H](NC(=O)c2ccc(C(=O)Nc3ccc4c(c3)CN(C(=O)[C@@H](NC(=O)[C@H](C)NC)C(C)(C)SCC(=O)N(C)Cc3cccc(F)c3)[C@H](C(=O)N[C@@H]3CCCc5ccccc53)C4)cc2)C[C@H]1C(=O)N[C@@H]1CCCc2ccccc21)C(C)(C)C [Example 62, N^1-((3S,5S)-1-((S)-3,3-Dimethyl-2-((S)-2-(methylamino)propanamido)butanoyl)-5-(((R)-1,2,3,4-tetrahydronaphthalen-1-yl)carbamoyl)pyrrolidin-3-yl)-N^4-((S)-2-((R)-3-((2-((3-fluorobenzyl)(methyl)amino)-2-oxoethyl)thio)-3-methyl-2-((S)-2-(methylamino)propanamido)butanoyl)-3-(((R)-1,2,3,4-tetrahydronaphthalen-1-yl)carbamoyl)-1,2,3,4-tetrahydroisoquinolin-7-yl)terephthalamide] | 58 | 73 |
| CN[C@@H](C)C(=O)N[C@H](C(=O)N1C[C@@H](NC(=O)c2ccc(C(=O)Nc3ccc4c(c3)CN(C(=O)[C@@H](NC(=O)[C@H](C)NC)C(C)(C)SCC(=O)NCCO)[C@H](C(=O)N[C@@H]3CCCc5ccccc53)C4)cc2)C[C@H]1C(=O)N[C@@H]1CCCc2ccccc21)C(C)(C)C [Example 63, N^1-((3S,5S)-1-((S)-3,3-Dimethyl-2-((S)-2-(methylamino)propanamido)butanoyl)-5-(((R)-1,2,3,4-tetrahydronaphthalen-1-yl)carbamoyl)pyrrolidin-3-yl)-N^4-((S)-2-((R)-3-((2-((2-hydroxyethyl)amino)-2-oxoethyl)thio)-3-methyl-2-((S)-2-(methylamino)propanamido)butanoyl)-3-(((R)-1,2,3,4-tetrahydronaphthalen-1-yl)carbamoyl)-1,2,3,4-tetrahydroisoquinolin-7-yl)terephthalamide] | 5 | 17 |
| CN[C@@H](C)C(=O)N[C@H](C(=O)N1C[C@@H](NC(=O)c2ccc(C(=O)Nc3ccc4c(c3)CN(C(=O)[C@@H](NC(=O)[C@H](C)NC)C(C)(C)SCC(=O)N(C)C)[C@H](C(=O)N[C@@H]3CCCc5ccccc53)C4)cc2)C[C@H]1C(=O)N[C@@H]1CCCc2ccccc21)C(C)(C)C [Example 64, N^1-((3S,5S)-1-((S)-3,3-Dimethyl-2-((S)-2-(methylamino)propanamido)butanoyl)-5-(((R)-1,2,3,4-tetrahydronaphthalen-1-yl)carbamoyl)pyrrolidin-3-yl)-N^4-((S)-2-((R)-3-((2-(dimethylamino)-2-oxoethyl)thio)-3-methyl-2-((S)-2-(methylamino)propanamido)butanoyl)-3-(((R)-1,2,3,4-tetrahydronaphthalen-1-yl)carbamoyl)-1,2,3,4-tetrahydroisoquinolin-7-yl)terephthalamide] | 10 | 14 |
| CN[C@@H](C)C(=O)N[C@H](C(=O)N1C[C@@H](NC(=O)c2ccc(C(=O)Nc3ccc4c(c3)CN(C(=O)[C@@H](NC(=O)[C@H](C)NC)C(C)(C)SCCO)[C@H](C(=O)N[C@@H]3CCCc5ccccc53)C4)cc2)C[C@H]1C(=O)N[C@@H]1CCCc2ccccc21)C(C)(C)C [Example 67, N^1-((3S,5S)-1-((S)-3,3-Dimethyl-2-((S)-2-(methylamino)propanamido)butanoyl)-5-(((R)-1,2,3,4-tetrahydronaphthalen-1-yl)carbamoyl)pyrrolidin-3-yl)-N^4-((S)-2-((R)-3-((2-hydroxyethyl)thio)-3-methyl-2-((S)-2-(methylamino)propanamido)butanoyl)-3-(((R)-1,2,3,4-tetrahydronaphthalen-1-yl)carbamoyl)-1,2,3,4-tetrahydroisoquinolin-7-yl)terephthalamide] | 6 | 14 |
| CN[C@@H](C)C(=O)N[C@H](C(=O)N1C[C@@H](NC(=O)c2ccc(C(=O)Nc3ccc4c(c3)CN(C(=O)[C@@H](NC(=O)[C@H](C)NC)C(C)(C)SCc3ncc(C(C)(C)C)o3)[C@H](C(=O)N[C@@H]3CCCc5ccccc53)C4)cc2)C[C@H]1C(=O)N[C@@H]1CCCc2ccccc21)C(C)(C)C [Example 68, N^1-((S)-2-((R)-3-(((5-(tert-Butyl)oxazol-2-yl)methyl)thio)-3-methyl-2-((S)-2-(methylamino)propanamido)butanoyl)-3-(((R)-1,2,3,4-tetrahydronaphthalen-1-yl)carbamoyl)-1,2,3,4-tetrahydroisoquinolin-7-yl)-N^4-((3S,5S)-1-((S)-3,3-dimethyl-2-((S)-2-(methylamino)propanamido)butanoyl)-5-(((R)-1,2,3,4-tetrahydronaphthalen-1-yl)carbamoyl)pyrrolidin-3-yl)terephthalamide] | 160 | 260 |
